Experiments:
Assay type in all cases: in vivo, SD rat
COX-2 = assay: mRNA expression of inflammatory factor in joint with induced osteoarthritis by PCR; settings: compared to MIA-induced increase, FIG. 2
Excerpt: (§1) From a joint with induced osteoarthritis, mRNA was extracted and the expression of an inflammatory factor (IL-1β, IL-6, TNF-α and COX-2) and a cartilage degeneration-inducing factor (MMP-9) was examined by PCR.

IL-6 = assay: as above; settings: compared to MIA-induced increase, FIG. 2
Excerpt: as §1

TNF-α = assay: as above; settings: compared to MIA-induced increase, FIG. 2
Excerpt: as §1

IL-1β = assay: as above; settings: compared to MIA-induced increase, FIG. 2
Excerpt: as §1

MMP-9 = assay: mRNA expression of cartilage degeneration-inducing factor in joint with induced osteoarthritis by PCR; settings: compared to MIA-induced increase, FIG. 2
Excerpt: as §1

[1] = tested on: MIA (monosodium iodoacetate)-induced osteoarthritis; assay: Bodyweight loading of hind limb in animal model of MIA-induced osteoarthritis (incapacitance tester); settings: compared to MIA group; oral once a day for 21 days, measured every 7 days; FIG. 1
Method: To determine the effect of an extract of Alpinia oxyphylla, which has been prepared in the above Example 1, on bodyweight loading in an animal model of MIA-induced osteoarthritis, MIA as an osteoarthritis-inducing material (diluted to 60 mg/ml with 0.9% physiological saline) was administered in an amount of 50 μl to an articular cavity of a right hind limb of 7-week old SD rat to induce osteoarthritis. After that, the animal was orally administered with an extract of Alpinia oxyphylla (150 or 300 mg/kg) once a day for 21 days, while the percentage of bodyweight loading was measured every 7 days. As a positive control group, indomethacin (1 mg/kg) was used.
The bodyweight loading on hind limb was measured by using a paw weight tester (Incapacitance tester, Linton instrument Co., UK, Ser No. 01/45/25). In a tester holder, the rat with induced osteoarthritis tends to stand on a normal paw which has not been administered with MIA due to the pain occurring in the other paw, and thus balance between the weights of two paws was not maintained so that the weight of paw administered with MIA is measured to be relatively lighter than the weight of normal paw. […] Then, by using the weight of paw which has been measured accordingly, percentage of bodyweight loading (%) was calculated based on the following Formula 1. […]

SMILES: COc1ccc2c(c1)c(CC(=O)O)c(C)n2C(=O)c1ccc(Cl)cc1 [indomethacin]
- expression of COX-2 (inflammatory factor) (COX-2): decreased in significant sense
- expression of IL-6 (inflammatory factor) (IL-6): decreased in significant sense
- expression of TNF-α (inflammatory factor) (TNF-α): decreased in significant sense
- expression of IL-1β (inflammatory factor) (IL-1β): decreased in significant sense
- expression of MMP-9 (cartilage degeneration-inducing factor) (MMP-9): decreased in significant sense
- percentage of bodyweight loading (%) of hind limb [1]: higher than the MIA-induced osteoarthritis group

Source: patent US20200268827A1, “COMPOSITION FOR PREVENTION, IMPROVEMENT OR TREATMENT OF OSTEOARTHRITIS COMPRISING ALPINIA OXYPHYLLA EXTRACT AS EFFECTIVE COMPONENT” (KOREA INSTITUTE OF ORIENTAL MEDICINE, priority 2017, published 2020)
